# According to ChEMBL document CHEMBL5518174 (Eur J Med Chem, 2024):
# Calls of active or inactive are those of the source. The calls are words filed in the database; no cut-off is given here.
# Columns and labels:
# [1] = Downregulation of HDAC11 protein expression in human MDA-MB-231 cells assessed as fold change at 0.05 uM incubated for 24 hrs by immunoblotting analysis (reference value: 1); format: functional
# [2] = Effect on HDAC9 protein expression in human MDA-MB-231 cells assessed as fold change at 0.05 uM incubated for 24 hrs by immunoblotting analysis (reference value: 1); format: functional
# [3] = molecular target: Histone deacetylase 5 (Homo sapiens, UniProt Q9UQL6); assay: Inhibition of recombinant human HDAC5 using acetylated luminogenic substrate incubated for 10 mins by ultra-glo recombinant firefly luciferase based luminescence assay
# Sequence of Histone deacetylase 5 (Q9UQL6 whole entry): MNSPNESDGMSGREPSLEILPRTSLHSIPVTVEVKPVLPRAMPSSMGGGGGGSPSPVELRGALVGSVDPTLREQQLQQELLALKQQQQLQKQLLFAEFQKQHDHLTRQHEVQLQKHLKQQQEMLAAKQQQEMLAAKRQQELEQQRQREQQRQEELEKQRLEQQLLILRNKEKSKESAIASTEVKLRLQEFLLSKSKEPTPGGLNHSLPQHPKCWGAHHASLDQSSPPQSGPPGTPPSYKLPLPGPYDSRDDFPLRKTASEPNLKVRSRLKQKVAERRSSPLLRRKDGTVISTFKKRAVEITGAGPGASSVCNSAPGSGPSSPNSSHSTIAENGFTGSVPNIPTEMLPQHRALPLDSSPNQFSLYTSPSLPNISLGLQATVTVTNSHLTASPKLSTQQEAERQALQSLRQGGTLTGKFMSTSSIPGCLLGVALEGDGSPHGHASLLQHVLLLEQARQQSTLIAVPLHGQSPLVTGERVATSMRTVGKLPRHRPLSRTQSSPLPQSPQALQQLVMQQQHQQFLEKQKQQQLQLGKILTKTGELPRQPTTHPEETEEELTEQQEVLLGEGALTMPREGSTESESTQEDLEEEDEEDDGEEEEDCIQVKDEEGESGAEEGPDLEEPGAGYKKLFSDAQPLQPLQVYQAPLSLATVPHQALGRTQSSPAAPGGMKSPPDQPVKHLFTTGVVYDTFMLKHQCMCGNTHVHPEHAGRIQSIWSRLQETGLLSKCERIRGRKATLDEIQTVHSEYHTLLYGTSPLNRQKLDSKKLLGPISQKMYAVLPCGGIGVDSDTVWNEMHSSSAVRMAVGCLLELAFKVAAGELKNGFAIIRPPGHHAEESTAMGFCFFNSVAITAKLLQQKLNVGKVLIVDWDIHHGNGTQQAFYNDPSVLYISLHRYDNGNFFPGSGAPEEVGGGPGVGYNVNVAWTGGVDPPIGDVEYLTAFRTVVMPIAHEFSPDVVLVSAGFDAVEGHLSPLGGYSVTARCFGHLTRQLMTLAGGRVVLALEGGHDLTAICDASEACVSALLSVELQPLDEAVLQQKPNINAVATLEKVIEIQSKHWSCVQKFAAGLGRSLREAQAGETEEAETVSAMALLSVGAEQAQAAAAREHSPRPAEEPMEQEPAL
# [4] = Downregulation of HDAC1 protein expression in human MDA-MB-231 cells assessed as fold change at 0.05 uM incubated for 24 hrs by immunoblotting analysis (reference value: 1); format: functional
# [5] = Upregulation of acetylated H3 protein expression in human MDA-MB-231 cells assessed as fold change at 0.05 uM incubated for 24 hrs by immunoblotting analysis (reference value: 1); format: functional
# [6] = Effect on HDAC1 protein expression in human NCI-H1975 cells assessed as fold change at 0.05 uM incubated for 24 hrs by immunoblotting analysis (reference value: 1); format: functional
# [7] = Downregulation of HDAC10 protein expression in human MDA-MB-231 cells assessed as fold change at 0.1 uM incubated for 24 hrs by immunoblotting analysis (reference value: 1); format: functional
# [8] = Downregulation of HDAC10 protein expression in human NCI-H1975 cells assessed as fold change at 0.1 uM incubated for 24 hrs by immunoblotting analysis (reference value: 1); format: functional
# [9] = Upregulation of acetylated H3 protein expression in human NCI-H1975 cells assessed as fold change at 0.1 uM incubated for 24 hrs by immunoblotting analysis (reference value: 1); format: functional
# [10] = tested on: MDA-MB-231; assay: Antitumor activity against human MDA-MB-231 cells xenografted in athymic nude BALB/c mouse assessed as reduction in tumor growth at 3 mg/kg, ip administered 5 times a week for 7 weeks by vernier caliper method; format: functional, organism-based
# [11] = Downregulation of HDAC3 protein expression in human MDA-MB-231 cells assessed as fold change at 0.1 uM incubated for 24 hrs by immunoblotting analysis (reference value: 1); format: functional
# [12] = Effect on HDAC8 protein expression in human MDA-MB-231 cells assessed as fold change at 0.05 uM incubated for 24 hrs by immunoblotting analysis (reference value: 1); format: functional
# [13] = tested on: MDA-MB-231; assay: Cytotoxicity against human MDA-MB-231 cells assessed as inhibition of cell growth incubated for 48 hrs by Celltiter-glo assay; format: functional, cell-based; details: MDA-MB-231, 48 h
# [14] = Downregulation of HDAC7 protein expression in human NCI-H1975 cells assessed as fold change at 0.1 uM incubated for 24 hrs by immunoblotting analysis (reference value: 1); format: functional
# [15] = molecular target: T1, Protein deacetylase HDAC6 (Homo sapiens, UniProt Q9UBN7); assay: Inhibition of recombinant human HDAC6 using acetylated luminogenic substrate incubated for 10 mins by ultra-glo recombinant firefly luciferase based luminescence assay
# T1 sequence (Q9UBN7 whole entry): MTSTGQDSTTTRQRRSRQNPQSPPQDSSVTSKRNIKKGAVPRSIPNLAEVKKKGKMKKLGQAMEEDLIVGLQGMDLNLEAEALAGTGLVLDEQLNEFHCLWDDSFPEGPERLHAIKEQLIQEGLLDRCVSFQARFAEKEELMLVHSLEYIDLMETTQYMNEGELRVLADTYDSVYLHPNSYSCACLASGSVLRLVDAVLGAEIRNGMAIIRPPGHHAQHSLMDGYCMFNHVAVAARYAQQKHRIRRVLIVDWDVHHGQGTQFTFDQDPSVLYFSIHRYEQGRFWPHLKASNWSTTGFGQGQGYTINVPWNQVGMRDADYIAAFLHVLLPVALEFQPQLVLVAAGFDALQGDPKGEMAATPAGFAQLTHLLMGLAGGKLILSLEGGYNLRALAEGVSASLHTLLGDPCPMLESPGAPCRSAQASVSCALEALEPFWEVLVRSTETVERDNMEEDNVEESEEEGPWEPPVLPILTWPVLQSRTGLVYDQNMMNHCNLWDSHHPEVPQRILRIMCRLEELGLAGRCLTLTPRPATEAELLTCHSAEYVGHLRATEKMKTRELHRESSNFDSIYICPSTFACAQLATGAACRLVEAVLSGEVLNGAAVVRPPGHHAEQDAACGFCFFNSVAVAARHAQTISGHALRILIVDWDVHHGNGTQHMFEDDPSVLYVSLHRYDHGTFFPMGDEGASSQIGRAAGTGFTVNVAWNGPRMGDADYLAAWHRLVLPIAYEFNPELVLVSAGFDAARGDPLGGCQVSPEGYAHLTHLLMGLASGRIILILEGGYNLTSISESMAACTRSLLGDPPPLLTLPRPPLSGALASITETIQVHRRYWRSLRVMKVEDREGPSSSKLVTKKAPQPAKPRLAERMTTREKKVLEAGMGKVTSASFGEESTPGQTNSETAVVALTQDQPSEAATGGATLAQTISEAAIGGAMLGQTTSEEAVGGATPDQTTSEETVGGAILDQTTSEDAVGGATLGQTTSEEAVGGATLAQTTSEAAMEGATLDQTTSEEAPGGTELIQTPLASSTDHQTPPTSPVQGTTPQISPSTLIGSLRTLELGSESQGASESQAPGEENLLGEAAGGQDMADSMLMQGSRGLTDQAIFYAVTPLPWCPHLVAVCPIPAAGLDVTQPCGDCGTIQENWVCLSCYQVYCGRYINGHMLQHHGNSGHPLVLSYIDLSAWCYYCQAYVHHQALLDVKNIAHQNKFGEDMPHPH
# [16] = Effect on HDAC5 protein expression in human NCI-H1975 cells assessed as fold change at 0.05 uM incubated for 24 hrs by immunoblotting analysis (reference value: 1); format: functional
# [17] = tested on: NCI-H1975; assay: Antitumor activity against human NCI-H1975 cells xenografted in athymic nude BALB/c mouse assessed as reduction in tumor growth at 6 mg/kg, ip administered 5 times a week for 3 weeks by vernier caliper method; format: functional, organism-based
# [18] = Downregulation of HDAC9 protein expression in human MDA-MB-231 cells assessed as fold change at 0.1 uM incubated for 24 hrs by immunoblotting analysis (reference value: 1); format: functional
# [19] = Downregulation of HDAC3 protein expression in human MDA-MB-231 cells assessed as fold change at 0.05 uM incubated for 24 hrs by immunoblotting analysis (reference value: 1); format: functional
# [20] = Downregulation of HDAC10 protein expression in human MDA-MB-231 cells assessed as fold change at 0.05 uM incubated for 24 hrs by immunoblotting analysis (reference value: 1); format: functional
# [21] = Downregulation of HDAC2 protein expression in human NCI-H1975 cells assessed as fold change at 0.05 uM incubated for 24 hrs by immunoblotting analysis (reference value: 1); format: functional
smiles,measurement,setting,value
CCOc1ccc(-c2nc(C(=O)NCc3ccc(C(=O)NO)cc3)c3[nH]c(=O)n(-c4cccnc4OC)c3n2)cn1,fold change (FC),[1],0.53
same,fold change (FC),[2],1.08
same,IC50,[3],> 1 µM
same,fold change (FC),[4],0.84
same,fold change (FC),[5],1.29
same,fold change (FC),[6],1.44
same,fold change (FC),[7],0.88
same,fold change (FC),[8],0.9
same,fold change (FC),[9],2.19
same,Activity,[10],Active
same,fold change (FC),[11],0.65
same,fold change (FC),[12],1.7
same,IC50,[13],0.51 µM
same,fold change (FC),[14],0.79
same,IC50,[15],0.0108 µM
same,fold change (FC),[16],2.38
same,Activity,[17],Active
same,fold change (FC),[18],0.94
same,fold change (FC),[19],0.82
same,fold change (FC),[20],0.89
same,fold change (FC),[21],0.77
